Data as given in US10919894B2, “Adenine derivatives which are useful in the treatment of allergic diseases or other inflammatory conditions” (GlaxoSmithKline Biologicals SA, priority 2014, dated 2021).

Key:
hPBMCs [1] = assay: IFNα induction in hPBMCs; assay type: cell-based; details: human PBMCs, FIG. 6
Experimental: (§1) Compounds were dissolved in 2% glycerol in water to working concentrations starting at 10 μM, serially diluted to 0.00013 μM with 5-fold dilutions. This compound preparation was added to 96-well flat bottom plates at a volume of 10 μl.
(§2) An additional 10 μl of media was added to these wells, or another compound preparation if co-stimulation was intended.
(§3) Blood samples from human donors were collected into heparinized 60 cc syringes, and divided into 20 ml aliquots in 50 ml conical culture tubes. The whole blood aliquots were then diluted with 15 ml of PBS, and then underlay with 15 ml HISTOPAQUE™. The samples were centrifuged at 800 g for 30 min with no brake and the buffy coat interface carefully removed. The collected cells were centrifuged at 1500 rpm for 5 minutes and the pellet resuspended in 10 ml of PBS. The cells were pooled and further washed twice in PBS to remove all HISTOPAQUE™ from the samples. After the final wash, the combined cells were brought up in 20 ml complete media (RPMI 1640 supplemented with 10% v/v heat-inactivated Fetal Bovine Serum (FBS), 100 U/ml penicillin G, 100 μg/ml streptomycin, 10 mM L-glutamine), counted using a Countess automated cell counter (Invitrogen, Life Technologies) and diluted to give a final concentration of 2.8×10^6/ml. […]
The induction of IFNα from hPBMCs upon stimulation with oxoadenines 3a-g was also evaluated. […]

human PBMCs = assay: IL-12p70 induction in human PBMCs in combination with CRX601 (TLR4 agonist); assay type: cell-based; set-up: key to IL-12p70 w/601: * through ****; lowest to highest cytokine induction level; * through ****; lowest to highest cytokine induction level; * through ****; lowest to highest cytokine induction level; * through ****; lowest to highest cytokine induction level; details: for IL-12p70 w/601: PBMC/Monocytes, in combination with CRX601; for synergy with CRX601 for IL12-p70: human PBMCs, FIGS. 8A and 8B
Experimental: as §2
(§4) Blood samples from human donors were collected into heparinized 60 cc syringes, and divided into 20 ml aliquots in 50 ml conical culture tubes. The whole blood aliquots were then diluted with 15 ml of PBS, and then underlay with 15 ml HISTOPAQUE™. The samples were centrifuged at 800 g for 30 min with no brake and the buffy coat interface carefully removed. The collected cells were centrifuged at 1500 rpm for 5 minutes and the pellet resuspended in 10 ml of PBS. The cells were pooled and further washed twice in PBS to remove all HISTOPAQUE™ from the samples. After the final wash, the combined cells were brought up in 20 ml complete media (RPMI 1640 supplemented with 10% v/v heat-inactivated Fetal Bovine Serum (FBS), 100 U/ml penicillin G, 100 μg/ml streptomycin, 10 mM L-glutamine), counted using a Countess automated cell counter (Invitrogen, Life Technologies) and diluted to give a final concentration of 2.8×10^6/ml. This cell suspension was added to the culture plate containing the compound preparations (see above), at a volume of 180 μl, resulting in a total well volume of 200 µl.
After 24 hr incubation (37° C., 95% air, 5% CO2), the supernatants were carefully removed and assayed for cytokine/chemokine induction using multiplex kits (FLUOROKINE™ multiplex kits from R&D Systems [bio-techne], Minneapolis, Minn.) and human IFNa VERIKINE™ ELISA kit (Pestka Biomedical Laboratories, Inc., Piscataway, N.J.).
As previously observed with other oxoadenines (see WO2010/018134), synergy with AGP CRX601 for IL12-p70 was relatively low compared to imidazoquinoline compound CRX642 (see WO2010/048520; PCT/US2009/061867; U.S. Pat. No. 8,624,029) in combination with CRX601.

hTLR7 = target: T1, hTLR7 (Homo sapiens, UniProt Q9NYK1); assay: NF-κB SEAP reporter gene assay in HEK293 cells stably transfected with hTLR7; assay type: cell-based; details: for EC50: HEK 293, 24 h stimulation, NF-κB SEAP, read-out: TLR7 ED50; for higher TLR7 potency in relation to oxoadenine 3b: HEK293-hTLR7, FIG. 4A
T1 construct: host or cells: HEK293 cells stably transfected with hTLR7 and NF-κB SEAP reporter
T1 sequence (Q9NYK1 27-1049): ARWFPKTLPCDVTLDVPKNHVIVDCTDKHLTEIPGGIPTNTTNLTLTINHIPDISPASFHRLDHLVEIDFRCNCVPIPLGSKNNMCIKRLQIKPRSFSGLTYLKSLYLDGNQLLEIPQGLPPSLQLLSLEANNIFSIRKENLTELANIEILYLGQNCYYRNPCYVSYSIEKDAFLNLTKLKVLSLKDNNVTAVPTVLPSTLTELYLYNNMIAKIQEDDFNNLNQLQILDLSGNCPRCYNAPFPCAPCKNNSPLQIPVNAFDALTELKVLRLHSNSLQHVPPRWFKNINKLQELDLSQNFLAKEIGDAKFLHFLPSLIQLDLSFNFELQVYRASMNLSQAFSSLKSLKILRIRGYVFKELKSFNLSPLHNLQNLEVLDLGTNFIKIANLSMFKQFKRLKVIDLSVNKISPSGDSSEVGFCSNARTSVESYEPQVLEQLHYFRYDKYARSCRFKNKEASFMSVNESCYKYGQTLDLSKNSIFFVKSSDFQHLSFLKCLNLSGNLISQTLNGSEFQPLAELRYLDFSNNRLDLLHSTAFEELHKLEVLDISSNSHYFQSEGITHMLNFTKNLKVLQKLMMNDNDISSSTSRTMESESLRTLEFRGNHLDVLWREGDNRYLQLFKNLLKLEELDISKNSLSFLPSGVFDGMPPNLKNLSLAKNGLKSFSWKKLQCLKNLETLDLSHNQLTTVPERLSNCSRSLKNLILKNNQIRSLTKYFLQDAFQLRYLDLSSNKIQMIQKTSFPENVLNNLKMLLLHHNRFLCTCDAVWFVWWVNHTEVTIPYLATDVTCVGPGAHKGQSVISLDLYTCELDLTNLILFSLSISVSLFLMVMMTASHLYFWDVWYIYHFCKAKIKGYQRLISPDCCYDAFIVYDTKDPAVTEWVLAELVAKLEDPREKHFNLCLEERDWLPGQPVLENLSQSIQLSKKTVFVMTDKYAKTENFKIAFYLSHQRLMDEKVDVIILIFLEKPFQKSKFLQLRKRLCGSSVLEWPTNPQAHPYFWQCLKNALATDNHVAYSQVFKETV
Experimental: The human (h) TLR7/8 activity of oxoadenines 3a-g was assessed by a reporter gene assay using HEK293 cells stably transfected with either hTLR7 or hTLR8, and with the NF-κB SEAP (secreted embryonic alkaline phosphatase) reporter.
HEK293 cells expressing human TLR7 or TLR8, and NF-κB responsive SEAP reporter gene, were obtained from InvivoGen (San Diego, Calif.). These cells were maintained in culture media of Dulbecco's Modified Eagle Medium (DMEM)
(Invitrogen, Grand Island, N.Y.), 10% Fetal Bovine Serum (FBS) (Sigma, St. Louis, Mo.) and selection antibiotics (Invitrogen and InvivoGen). The stably transfected HEK293 cells were plated in 96-well flat bottom culture plates at 1^E5/well and stimulated for 24 h with a dose range of aqueous formulations of compounds starting at 200 μM, serially diluted to 0.012 μM with 2-fold dilutions (unless formulation conditions warranted lower starting concentrations). Culture supernatants were harvested and assayed for NFKB activation using the colorimetric SEAP detection kit QU ANTI-BLUE (a trademark of InvivoGen).
The assay measured NFKB mediated SEAP production following TLR7 or TLR8 specific activation.
It should be noted that the HEK assay is not optimal for evaluating TLR7 since TLR7 signals via both the NFKB (leading to induction of inflammatory cytokines) and IRF7 pathways (leading to IFN induction) and the HEK system only measures the NFKB side of TLR7 signaling. Oxoadenine 3a was not active on hTLR7 or hTLR8 but the other oxoadenines 3b-g were all active.

hPBMCs [2] = assay: TNFα induction in hPBMCs; assay type: cell-based, human; details: 24 hours stimulation
Experimental: as §1, §2
as §3, with “The cells were pooled and further washed twice in PBS to remove all HISTOPAQUE™ from the samples.” left out
The induction of cytokines in human peripheral blood mononuclear cells (hPBMCs) after 24 hours stimulation with oxoadenines 3e-g was next evaluated using cytokine ELISA and intracellular cytokine staining (ICS). […]

pDC and mDC in hPBMCs = assay: Activation induced apoptosis by Annexin-V staining in pDC and mDC of stimulated hPBMCs; assay type: cell-based, human; details: hPBMCs stimulated with various doses
Text: This observed cell type specific apoptosis correlated with the dose-dependent IFNα and TNFα induction curves.

PBMC/Monocytes = assay: Inflammatory cytokine induction in PBMC/Monocytes; assay type: cell-based, human; set-up: key: * through ****; lowest to highest cytokine induction level; * through ****; lowest to highest cytokine induction level; * through ****; lowest to highest cytokine induction level; * through ****; lowest to highest cytokine induction level
Experimental: as §1
as §4, with “µl. […]” for “µl.”

| SMILES | dose at which IFN-alpha is induced (hPBMCs [1]) [nM] | IL-12p70 w/601 (human PBMCs) | synergy with CRX601 for IL12-p70 (human PBMCs) | EC50 (hTLR7) [nM] | higher TLR7 potency in relation to oxoadenine 3b (hTLR7) [fold] | TNFα induction in hPBMCs (in words) (hPBMCs [2]) | Annexin-V staining in mDC (pDC and mDC in hPBMCs; mDC) | Annexin-V staining in pDC (pDC and mDC in hPBMCs; pDC) | Infl. Cytok. (PBMC/Monocytes) |
| --- | --- | --- | --- | --- | --- | --- | --- | --- | --- |
| CCC[C@H](C)Oc1nc(N)c2nc(O)n(CCCCCC3CCNCC3)c2n1 [Compound 3x] | ~1 | ** | demonstrated synergy with CRX601 throughout a wide dose range | 6 | 100 | high potency | – | – | – |
| CCCCOc1nc(N)c2[nH]c(=O)n(CCCCCC3CCNCC3)c2n1 [Compound 3f] | ~1 | ** | demonstrated synergy with CRX601 throughout a wide dose range | 26 | 50 | high potency | not in mDC | dose dependent increase in Annexin-V staining | *** |
